Drawing on patent EP0571511B1, “NOVEL UREAS AND THIOUREAS, PREPARATION THEREOF AND APPLICATION IN THERAPY” (priority 1991, dated 1992), this text covers IC50 for one compound.

This test has as its target acétylcholinestérase (Homo sapiens, UniProt P22303). The experiment in a line: biochemical. As to conditions: Inhibition de l'activité de l'acétylcholinestérase; read-out: IC₅₀. The source says: Les composés de l'invention ont été soumis à des essais pharmacologiques qui ont montré leur intérét en tant qu'inhibiteurs de l'acétylcholinestérase.

Sequence of acétylcholinestérase (P22303 32-614, species assumed): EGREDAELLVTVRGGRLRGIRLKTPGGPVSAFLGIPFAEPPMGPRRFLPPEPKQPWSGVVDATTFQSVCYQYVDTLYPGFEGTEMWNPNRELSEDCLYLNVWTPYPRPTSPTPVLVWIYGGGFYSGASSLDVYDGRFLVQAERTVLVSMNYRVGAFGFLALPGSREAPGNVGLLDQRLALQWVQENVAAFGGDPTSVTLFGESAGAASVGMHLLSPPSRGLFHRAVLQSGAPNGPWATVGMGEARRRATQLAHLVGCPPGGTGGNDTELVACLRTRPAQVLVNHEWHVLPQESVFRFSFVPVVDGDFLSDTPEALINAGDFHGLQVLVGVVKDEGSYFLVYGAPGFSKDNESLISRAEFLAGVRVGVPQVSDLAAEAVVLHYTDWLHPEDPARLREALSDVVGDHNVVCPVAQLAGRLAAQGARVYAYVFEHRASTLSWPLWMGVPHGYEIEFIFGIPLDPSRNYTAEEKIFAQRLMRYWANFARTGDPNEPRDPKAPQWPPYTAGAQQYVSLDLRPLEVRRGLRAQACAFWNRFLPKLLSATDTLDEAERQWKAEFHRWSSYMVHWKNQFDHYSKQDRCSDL

Turning to `O=C(NC(=S)NCCC1CCN(Cc2ccccc2)CC1)c1ccc2c(c1)OCO2` [compound 12], the IC50 amounted to 18 nM.
